Read-outs that look alike come from different tables or passages of the source.
Assays:
[1] = biological target: T1, wild type AR (AR-LBD) (Rattus norvegicus, UniProt P15207); experiment: AR competition binding assay (Polar Screen, fluorescence polarization); details: displacement of Fluormone AL Green from AR-LBD; read-out: affinity for AR receptor (IC50 molar)
T1 construct: purchased life Technologies
Protocol: Briefly, the AR was added to a fluorescent androgen ligand (Fluormone™ AL Green) to from the complex AR-LBD. Competitors displaced the fluorescent Fluormone™ AL Green ligand from the AR-LBD causing the fluorescent ligand to tumble rapidly during its fluorescence lifetime, resulting in a low polarization value. Non competitors will not displace the fluorescent ligand from the complex, so the polarization value remains high. The shift in polarization value in the presence of test compounds is used to determine relative affinity of test compounds for AR-LBD.

[2] = In vitro metabolism in human plasma; assay type: in vitro ADME; details: 37° C.; FIG. 13
Protocol: To obtain some insights on the metabolism of CB-03-10 in human and rat plasma, a specific assay was designed. Briefly the compound was incubated at different time in human and rat plasma at 37° C. After incubation the samples were tested for presence of the intact compound by liquid chromatography.

[3] = system: Caspase 8, 9 and 3/7 in MiaPaca2 cells; experiment: Caspase activity in MiaPaca2 cells; assay type: cell-based, human
Protocol: From previous studies was determined that CB-03-10 induces apoptosis using Annexin V staining in MiaPaca2 cells. To better analyze the phenomenon the enzymatic activity of Caspase 8 (initiator caspase for Extrinsic Pathway) and Caspase 9 (initiator caspase for Intrinsic Pathway) and of Caspases 3 and 7 (effector caspases) were measured.
(§1) After 24 hours test compounds were added to cells, Gemcitabine (a known pancreatic cancer chemotherapeutic agent) and DMSO were used as positive and negative control, respectively. After 8, 24, & 48 hours incubation with test compounds, cells were lysed in buffer containing the caspase 3/7 or 8 or 9 substrate and a stable luciferase in proprietary buffers. The lysates were transferred to white opaque plates before measuring luminescence in a Tecan Safire instrument. Parallel plates treated identically, were used to determine viable cells. All caspase activities were corrected for the number of viable cells.

[4] = In vivo pharmacokinetics in mouse plasma; details: mice; iv 20 mg/kg, SC 40 mg/kg, PO 40 mg/kg
Protocol: The pharmacokinetic of CB-03-10 was evaluated in plasma of mice after intravenous (IV), subcutaneous (SC) and oral administration (PO).
Mice (3 per group) were administered with the following doses, blood was collected at the indicated times. Plasma samples were analyzed by HPLC-MS/MS.

[5] = system: Caspase 8, 9 and 3/7 in LNCaP cells; experiment: Caspase activity in LNCaP cells; assay type: cell-based, human; details: 24 hours
Protocol: as §1
Same assay was repeated using LNCaP prostate cancer cell lines (FIG. 12). […] The results are shown in FIG. 12 at 24 hours incubation when the caspase activities peaked.

[6] = system: HT29 colon cancer cells; experiment: In vitro proliferation, HT29 (cancer cell panel); assay type: cell-based; details: Homo sapiens
Protocol: (§2) Each compounds was titrated from 3 uM to 200 uM.

[7] = system: MiaPaca2 cells; experiment: Annexin V / propidium iodide apoptosis assay; assay type: cell-based, human; details: 24 hours, control 11%
Protocol: CB-03-10 was evaluated to determine if the mechanism of cytotoxicity on cancer cell lines was mediated by apoptosis and cell cycle arrest. Cancer cell lines were seeded in 6-well flat bottom plates. After 24 hours test compounds or DMSO vehicle (negative control) were added. After an additional 24 hours cells were scraped and stained with fluorescein conjugated Annexin V and propidium iodide and analyzed by flow cytometry.

[8] = biological target: T2, Glucocorticoid Receptor (Homo sapiens, UniProt P04150); experiment: GR reporter assay, antagonist mode; assay type: cell-based; details: FIG. 7
T2 construct: endogenous in cells; host or cells: human kidney epithelial cells
T2 sequence (P04150 1-777): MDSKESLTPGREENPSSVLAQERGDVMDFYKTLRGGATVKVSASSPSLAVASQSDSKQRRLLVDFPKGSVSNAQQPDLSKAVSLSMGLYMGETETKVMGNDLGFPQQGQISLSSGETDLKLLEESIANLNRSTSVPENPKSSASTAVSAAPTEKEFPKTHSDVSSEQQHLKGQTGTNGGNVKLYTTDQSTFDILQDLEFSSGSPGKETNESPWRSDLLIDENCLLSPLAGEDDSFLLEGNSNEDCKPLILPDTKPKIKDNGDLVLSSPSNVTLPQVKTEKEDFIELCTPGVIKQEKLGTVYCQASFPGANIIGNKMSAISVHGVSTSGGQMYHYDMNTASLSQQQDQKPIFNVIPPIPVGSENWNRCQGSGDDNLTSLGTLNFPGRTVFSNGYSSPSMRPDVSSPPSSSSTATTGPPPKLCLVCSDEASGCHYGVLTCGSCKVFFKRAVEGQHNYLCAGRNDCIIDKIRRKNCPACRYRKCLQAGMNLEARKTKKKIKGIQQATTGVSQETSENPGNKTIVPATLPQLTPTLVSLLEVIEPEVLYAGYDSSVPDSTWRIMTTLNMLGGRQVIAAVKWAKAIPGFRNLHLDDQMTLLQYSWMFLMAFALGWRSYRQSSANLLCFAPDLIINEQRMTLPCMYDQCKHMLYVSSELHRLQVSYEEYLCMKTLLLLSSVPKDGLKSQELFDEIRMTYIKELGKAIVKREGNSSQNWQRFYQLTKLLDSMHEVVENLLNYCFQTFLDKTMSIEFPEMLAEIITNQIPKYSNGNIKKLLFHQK
Protocol: The androgen and glucocorticoid hormones elicit divergent and often opposing effects in cells, tissues, and animals. […] CB-03-10 GR antagonist and agonist activities were tested in an in vitro assay. Briefly, human kidney epithelial cells were transfected with DNA construct containing GR binding sites linked to luminescent based reporter molecule. After 24 hours, cells were treated under antagonist or agonist modes. After an additional 24 hours, luminescence which is proportional to GR agonist transcriptional activity was quantitated.
Antagonist Assay was based on inhibition of luminescence induced by Dexamethasone (Dex).
The antagonist activity of CB-03-10 was compared to a known GR antagonist, Mifepristone (also called RU486) as shown in FIG. 7.

[9] = system: MDA-MB-231 TNBC cells; experiment: In vitro proliferation / cytotoxic assay, MDA-MB-231; assay type: cell-based; details: Homo sapiens; MDA-MB-231 (ER−PR−GR++); 72 hours; Table VI; unit inferred; read-out: IC50 on breast cancer cells
Protocol: After 72 hours incubation cell were harvested, lysed and viability determined using the cell titer glow assay for viability.

[10] = system: LNCaP cells; experiment: LNCaP cell viability in the PSA secretion experiment; assay type: cell-based; details: Homo sapiens, 48 hours, same cells as PSA assay
Protocol: Prostate-specific antigen, or PSA, is a protein produced by cells of the prostate gland. The PSA test measures the level of PSA in a person's blood. The blood level of PSA is often elevated in men with prostate cancer and it used as surrogate marker to test prostate cancer progression in human population. […] After 48 hours incubation with test compounds, supernatants were harvested and tested with an Elisa assay for PSA and same cells were lysed for cell viability assessment.

[11] = system: Panc1 (AR+) pancreatic cancer cells; experiment: ATP-dependent proliferation/viability assay, Panc1; assay type: cell-based; details: Homo sapiens, read-out: IC50
Protocol: The experimental method consisted of: • 1. […] After 24 hours, 10 nM DHT (dihydrotestosterone) with or without anti-androgen compounds, or DMSO vehicle (negative control) was added to the cultures. • 3.
as §2

T1 sequence (P15207 651-882 limits assumed): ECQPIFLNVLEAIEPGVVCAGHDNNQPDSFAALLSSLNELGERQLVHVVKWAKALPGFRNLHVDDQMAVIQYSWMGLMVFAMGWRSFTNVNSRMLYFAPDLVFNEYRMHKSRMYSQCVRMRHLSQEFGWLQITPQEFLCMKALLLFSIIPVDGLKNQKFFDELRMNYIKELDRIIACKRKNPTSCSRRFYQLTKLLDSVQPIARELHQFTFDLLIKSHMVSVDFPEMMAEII

CCCCC(=O)O[C@]1(C(=O)COC(=O)CC)CC[C@H]2[C@@H]3CCC4=CC(=O)CC[C@]4(C)[C@H]3CC[C@@]21C [CB-03-10, cortexolone 17α-valerate-21-propionate]
IC50 [1]: 1.1 µM
degradation in human plasma [2]: rapidly degraded to CB-03-05
Caspase 3/7 induction ([3]; 8, 24, 48 hours): already at 8 hours at and a really high level after 48 hours incubation
increase in Caspase 8 and 9 activity compared to control ([3]; 20 or 50 μM, 8, 24, 48 hours, corrected for viable cells): ≤ 7 fold
plasma level of parent compound [4]: undetectable in plasma even after 1 hour regardless of the administration route
induction of Initiator (8 and 9) and Effector (3/7) caspase activities [5]: better than Enzalutamide
IC50 ([6]; HT-29, read-out: In vitro proliferation IC50 (micro Molar)): 14 µM
IC50 ([6]; HT-29, read-out: in vitro proliferation IC50 (μ/M)): 14 µM
cells in apoptosis (early and late), total [7]: 28%
GR antagonist potency relative to RU486 [8]: 10 times less
GR antagonist activity ([8]; inhibition of luminescence induced by Dexamethasone): potent antagonist
IC50 [9]: 106 µM
IC50 [10]: 11 µM
IC50 ([11]; PANC-1, 72 h, Panc1, 10 nM DHT, 3 days, Examples 3-4, Experiment 1): 66 µM
IC50 ([11]; PANC-1, Panc1, Example 7, Experiment 1): 68 µM

From patent US10183030B2, “17α,21-diesters of cortexolone for use in the treatment of tumors” (COSMO TECHNOLOGIES LTD., priority 2014, dated 2019)
